Data from patent publication US20050153304A1, “Multivariate profiling of complex biological regulatory pathways” (Government of the USA, as represented by the secretary, …, priority 2003, published 2005).

What was measured:
[1] = tested on: Jurkat T-cells, 8 promoter elements; experiment: Principal component analysis of vector differences between mitogen profiles in the absence and presence of drug (8 promoter elements); assay type: cell-based, human; conditions: subtraction vectors versus control mitogen profiles, FIG. 5
Description: The mitogen activation profiles under control conditions shown in red FIG. 4 were used to calculate subtraction vectors for each profile in the presence of a drug treatment. These vectors were then analyzed by PCA to show similarities and differences in targeting.
(§1) A human acute lymphoblastic T-cell leukemia cell line (Jurkat) was individually electroporated with 5 ug of a luciferase reporter plasmids driven by the interleukin 2 (IL-2) promoter, the NFAT element of the IL-2 promoter, the CD28RE-AP1 element of the IL-2 promoter, a consensus AP-1 element, a consensus NF-kappa B element, a consensus CRE element and the co-transfection of a Gal4 binding site or upstream activation sequence (UAS) driving a luciferase reporter in combination with either a full length Gal4-p300 fusion (FL) or a N-terminal domain fusion of p300 (amino acids 1-743). Electroporation was performed in a 96 well format with a BTX 96-well gold electrode. Cells were electroporated at 10 millions cells per well with each experiment repeated in triplicates. Following electroporation cells were stimulated with various combination of T-cell mitogens (see Table 1). Cells were harvested 5 hours after stimulation and assayed for luciferase activity by a 96 well luminometer. […]

[2] = tested on: NF-kappa B pathway; experiment: Luciferase reporter transfection in mitogen-stimulated Jurkat T-cells, principal component analysis of mitogen profiles; assay type: cell-based, human; conditions: co-stimulation with anti-CD28, FIG. 4 and FIG. 6
Description: as §1, with “luminometer. Data were normalized first for fold activation for each experiment and then inputted into an activation matrix where the data were normalized to percent maximum stimulation.” for “luminometer.”

In the case of “IGF-1: insulin-like growth factor one, a peptide growth factor”, the “drug targeting profile (similarity of pathways targeted)” value [1] is reported as “appear to target the same pathway” and the “effect on NF-kappa B pathway in activated T-cells” value [2] is reported as “synergies with anti-CD28 stimulation in activated T-cells to upregulate the NF-kappa B pathway”.
